Laboratory results as given in patent US20240148709A1, “METHODS OF TREATING EYE PAIN AND EYE DISORDERS” (Aisa Pharma, Inc., priority 2022, published 2024).
Entries after “also recorded” stand apart in the source; their conditions may differ.

How the values were obtained:
[1] = given orally; cited from earlier work
[2] = 10 mg cilnidipine, healthy volunteers, single oral dose, cited from earlier work
[3] = oral dosing; cited from earlier work
Nav 1.7 sodium channel = Nav 1.7 sodium channel (Homo sapiens, UniProt Q15858); settings: 20 mg dose of cilnidipine; cited from earlier work
participants with SSc-RP = experiment: Safety: adverse events and withdrawals, Phase 2a study Part A; type: in vivo; settings: for overall adverse event rate: all patients who received any dose of cilnidipine (n=17)
Source text: • Incidence of treatment emergent adverse events (AEs) and serious adverse events (SAEs), including clinically significant vital signs. For Part A safety will be assessed from the time of randomization until 7 days following the last protocol dose. For Part B, participants will be followed for 28 days from the last study dose. • Serious adverse events will be monitored by a DSMB (Part A) and Drug Safety Officer (Part B) on an ongoing basis throughout the study. • Adverse events will be coded using the MedDRA and summarized by SOC, PT, and treatment group.
Severity of AEs will be graded by the Investigator as one of: • Mild (Grade 1): A type of AE that is usually transient and may require only minimal treatment or therapeutic intervention.
Adverse events will be coded using the most current version of the MedDRA® Version 22.0 or higher. The analysis of AEs will be based on the concept of treatment emergent AEs. Treatment emergent AEs will be tabulated by treatment group and will include the number of participants for whom the event occurred, the severity, and relationship to study drug. Treatment emergent AEs (TEAEs) leading to discontinuation and SAEs with onset after the start of study drug will also be summarized. All AEs and SAEs (including those with onset or worsening before the start of study drug) through the end of the study will be listed.

Chain of Nav 1.7 sodium channel (Q15858 whole entry): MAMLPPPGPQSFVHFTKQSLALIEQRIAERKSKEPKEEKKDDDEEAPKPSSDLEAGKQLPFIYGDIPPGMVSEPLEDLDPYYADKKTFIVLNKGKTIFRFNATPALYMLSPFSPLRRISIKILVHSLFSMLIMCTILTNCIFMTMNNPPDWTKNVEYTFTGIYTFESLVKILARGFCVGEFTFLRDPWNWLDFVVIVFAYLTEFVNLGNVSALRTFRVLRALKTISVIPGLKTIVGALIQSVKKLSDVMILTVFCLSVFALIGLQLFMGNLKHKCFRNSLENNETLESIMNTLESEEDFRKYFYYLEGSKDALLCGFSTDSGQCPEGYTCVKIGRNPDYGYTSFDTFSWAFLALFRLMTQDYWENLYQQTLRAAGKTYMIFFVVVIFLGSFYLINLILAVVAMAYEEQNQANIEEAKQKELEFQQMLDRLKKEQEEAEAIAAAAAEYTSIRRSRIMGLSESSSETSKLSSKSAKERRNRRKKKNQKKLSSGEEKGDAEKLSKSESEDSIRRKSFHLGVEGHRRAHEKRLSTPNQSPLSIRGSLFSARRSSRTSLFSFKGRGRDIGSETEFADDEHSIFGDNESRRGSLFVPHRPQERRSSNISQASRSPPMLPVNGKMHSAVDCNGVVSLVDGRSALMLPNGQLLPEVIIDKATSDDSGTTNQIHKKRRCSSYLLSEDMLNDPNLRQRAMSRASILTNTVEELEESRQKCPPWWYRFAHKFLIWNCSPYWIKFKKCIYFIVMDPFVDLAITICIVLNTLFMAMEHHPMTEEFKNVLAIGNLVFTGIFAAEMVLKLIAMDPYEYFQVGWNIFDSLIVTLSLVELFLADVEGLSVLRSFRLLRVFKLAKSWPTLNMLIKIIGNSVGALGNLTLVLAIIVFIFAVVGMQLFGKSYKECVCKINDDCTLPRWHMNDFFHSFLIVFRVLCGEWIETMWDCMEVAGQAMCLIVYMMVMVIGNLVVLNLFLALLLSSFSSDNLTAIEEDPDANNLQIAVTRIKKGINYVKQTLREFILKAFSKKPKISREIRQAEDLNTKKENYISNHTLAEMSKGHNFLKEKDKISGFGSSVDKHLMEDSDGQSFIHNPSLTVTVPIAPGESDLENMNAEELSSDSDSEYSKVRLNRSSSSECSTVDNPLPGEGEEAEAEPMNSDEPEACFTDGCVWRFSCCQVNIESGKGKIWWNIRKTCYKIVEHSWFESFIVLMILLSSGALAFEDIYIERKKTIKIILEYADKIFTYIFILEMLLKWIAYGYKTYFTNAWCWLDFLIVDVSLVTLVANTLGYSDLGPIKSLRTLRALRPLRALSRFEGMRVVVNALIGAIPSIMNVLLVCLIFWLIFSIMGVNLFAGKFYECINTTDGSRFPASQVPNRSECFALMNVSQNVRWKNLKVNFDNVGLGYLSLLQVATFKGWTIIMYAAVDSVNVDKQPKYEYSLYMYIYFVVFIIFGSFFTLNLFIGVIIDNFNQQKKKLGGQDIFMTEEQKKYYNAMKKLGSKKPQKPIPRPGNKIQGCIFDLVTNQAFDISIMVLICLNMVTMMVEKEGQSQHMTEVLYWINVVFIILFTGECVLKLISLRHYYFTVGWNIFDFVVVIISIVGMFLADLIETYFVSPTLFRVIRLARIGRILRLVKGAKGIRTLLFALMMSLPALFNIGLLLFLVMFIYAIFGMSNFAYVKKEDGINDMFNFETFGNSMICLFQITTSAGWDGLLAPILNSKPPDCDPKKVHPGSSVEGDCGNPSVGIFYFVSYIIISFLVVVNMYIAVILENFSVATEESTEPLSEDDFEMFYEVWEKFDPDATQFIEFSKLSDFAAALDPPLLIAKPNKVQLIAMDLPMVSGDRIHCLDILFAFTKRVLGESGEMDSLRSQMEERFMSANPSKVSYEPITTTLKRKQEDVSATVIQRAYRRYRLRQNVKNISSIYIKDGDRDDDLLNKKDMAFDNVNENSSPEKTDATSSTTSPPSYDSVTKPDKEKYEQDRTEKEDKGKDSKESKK

COCCOC(=O)C1=C(C)NC(C)=C(C(=O)OC/C=C/c2ccccc2)C1c1cccc([N+](=O)[O-])c1 (centres unmarked) [Cilnidipine, cilnidipine]
protein binding in plasma [1]: 98%
AUCinf ([2]; mean (±SD)): 41.2 (±20.4) ng*h/mL
AUClast ([2]; mean (±SD)): 37.0 (±17.9) ng*hr/mL
CL/F ([2]; mean (±SD)): 304.7(±147.5) L/hr
Cmax ([2]; mean (±SD)): 8.9 (±4.2) ng/mL
T1/2 ([2]; mean (±SD)): 7.5(±1.0) hr
Tmax ([2]; median (minimum-maximum)): 2 (0.5-5) hr
time to achieve maximal plasma concentration (Tmax) [3]: ≤ 2 h
inhibition of Nav 1.7 compared to an 1800 mg dose of gabapentin (Nav 1.7 sodium channel): > 6 fold
tolerability (participants with SSc-RP; 10 mg and 20 mg, alone or in combination with tadalafil): well tolerated; also recorded: good tolerability
Safety: withdrawals (participants with SSc-RP; Cilnidipine 20 mg column (n = 8)): 1 withdrawal
Safety: number of AE (participants with SSc-RP; Cilnidipine 20 mg, HA-mild (n = 8)): 1AE (HA-mild;
Safety: number of AE (participants with SSc-RP; Pooled Cilnidipine, in combo with T (n = 9)): 1AE (in combo
overall adverse event rate (participants with SSc-RP): 17%
overall adverse event rate (participants with SSc-RP; listed as Profervia): 17% adverse
treatment discontinuations due to intolerance (participants with SSc-RP; any dose of cilnidipine (n=17)): no treatment discontinuations due to intolerance
severity grade of adverse events (participants with SSc-RP; patients treated with cilnidipine): only Grade 1 Adverse Events (AEs) were reported; also recorded: only mild (Grade 1) adverse events occurred
